Reference: PubChem BioAssay AID652285 (Sanford-Burnham Center for Chemical Genomics, 2013)
pIC50: −log10 of the molar value. Values joined by “and” are separate entries in the source; they are usually repeats but may differ in a detail not shown here. Equal values may be shown once. Active and inactive are the calls of the source.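 Rule for the calls: active = IC50 at or below 60 µM; inactive = the rest.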

Each compound was assayed against COP9 signalosome complex subunit 5 (Homo sapiens) (UniProt Q92905) (assay: inhibitors of Csn5 cullin deneddylation – biochemical, fluorescence polarization, Cul-Nedd8-OG substrate, selectivity assay for RPN11 inhibitor project, SAR follow-up (AID 652285)). Conditions: Csn5 deneddylation of SCF-Nedd8-OG.
Chain of COP9 signalosome complex subunit 5 (Homo sapiens) (Q92905 whole entry, looked up, one chain of several): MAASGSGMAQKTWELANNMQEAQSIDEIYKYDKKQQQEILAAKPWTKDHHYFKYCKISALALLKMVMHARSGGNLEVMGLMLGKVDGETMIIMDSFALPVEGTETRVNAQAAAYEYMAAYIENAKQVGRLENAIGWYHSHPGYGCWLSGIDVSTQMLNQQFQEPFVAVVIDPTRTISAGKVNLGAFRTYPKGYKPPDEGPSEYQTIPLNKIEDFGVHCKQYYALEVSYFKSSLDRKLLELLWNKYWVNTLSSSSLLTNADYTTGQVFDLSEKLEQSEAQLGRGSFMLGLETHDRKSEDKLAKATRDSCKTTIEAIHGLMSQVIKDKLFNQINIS

Row | SMILES | pIC50 | IC50
1 | O=C(Sc1cccc2cccnc12)c1ccc(F)cc1F | – | inactive
2 | COc1ccc(C(=O)Sc2cccc3cccnc23)cc1OC | 5.06 | –
3 | COC(=O)[C@H](CO)NC(=O)c1cnc2c(SSc3cccc4cc(C(=O)N[C@@H](CO)C(=O)OC)cnc34)cccc2c1 | 4.37 | –
4 | COC(=O)[C@H](C)NC(=O)c1ccnc2c(SSc3cccc4c(C(=O)N[C@@H](C)C(=O)OC)ccnc34)cccc12 | 4.77 | –
5 | COC(=O)[C@H](C)NC(=O)c1cnc2c(SSc3cccc4cc(C(=O)N[C@@H](C)C(=O)OC)cnc34)cccc2c1 | 4.81 | –
6 | O=C(O)[C@@H]1CCCN1C(=O)c1cnc2c(SSc3cccc4cc(C(=O)N5CCC[C@H]5C(=O)O)cnc34)cccc2c1 | 5.27 | –
7 | CC(C)(C)OC(=O)CCNC(=O)c1cnc2c(SSc3cccc4cc(C(=O)NCCC(=O)OC(C)(C)C)cnc34)cccc2c1 | 4.46 | –
8 | O=C(Sc1cccc2cccnc12)c1ccccc1OC(F)(F)F | 5.02 | –
9 | CC[C@@H](C)[C@H](NC(=O)c1cnc2c(SSc3cccc4cc(C(=O)N[C@H](C(=O)O)[C@H](C)CC)cnc34)cccc2c1)C(=O)O | 5.24 | –
10 | C[C@@H](C(=O)O)N(C)C(=O)c1cnc2c(SSc3cccc4cc(C(=O)N(C)[C@@H](C)C(=O)O)cnc34)cccc2c1 | 4.78 | –
11 | COC(=O)[C@@H](NC(=O)c1cnc2c(SSc3cccc4cc(C(=O)N[C@H](C(=O)OC)C(C)C)cnc34)cccc2c1)C(C)C | 5.12 | –
12 | COC(=O)[C@H](C)N(C)C(=O)c1cnc2c(SSc3cccc4cc(C(=O)N(C)[C@@H](C)C(=O)OC)cnc34)cccc2c1 | 5.06 | –
13 | CCCc1ccc(C(=O)Sc2cccc3cccnc23)cc1 | 4.97 | –
14 | COC(=O)[C@H](CC(C)C)NC(=O)c1cnc2c(SSc3cccc4cc(C(=O)N[C@@H](CC(C)C)C(=O)OC)cnc34)cccc2c1 | 4.90 | –
15 | CC(C)C[C@H](NC(=O)c1cnc2c(SSc3cccc4cc(C(=O)N[C@@H](CC(C)C)C(=O)O)cnc34)cccc2c1)C(=O)O | 5.03 | –
16 | O=C(Sc1cccc2cccnc12)c1c(Cl)cccc1Cl | 5.40 | –
17 | O=C(Sc1cccc2cccnc12)c1ccc(F)c(F)c1 | 5.27 | –
18 | O=C(Sc1cccc2cccnc12)c1ccc2c(c1)OCO2 | 4.74 | –
19 | COc1ccc(C(=O)Sc2cccc3cccnc23)cc1F | 5.19 | –
20 | O=C(Sc1cccc2cccnc12)c1ccc(C(F)(F)F)cc1 | 5.20 | –

Second part, the compound after the results:

Row | pIC50 | IC50 | SMILES
21 | 5.08 | – | O=C(Sc1cccc2cccnc12)c1ccccc1[N+](=O)[O-]
22 | – | > 95 µM (inactive) | N#Cc1ccc(C(=O)Sc2cccc3cccnc23)cc1
23 | 5.72 | – | O=C(Sc1cccc2cccnc12)c1cccc(Cl)c1
24 | 5.02 | – | COc1ccc(C(=O)Sc2cccc3cccnc23)cc1
25 | – | inactive | N#Cc1cccc(C(=O)Sc2cccc3cccnc23)c1
26 | 5.05 | – | O=C(Sc1cccc2cccnc12)c1cccc2ccccc12
27 | 4.95 | – | O=C(Sc1cccc2cccnc12)c1ccccc1I
28 | 5.37 | – | O=C(Sc1cccc2cccnc12)c1ccc(F)cc1
29 | 4.85 | – | O=C(Sc1cccc2cccnc12)c1ccccc1Cl
30 | – | > 95 µM (inactive) | Cc1ccc(C(=O)Sc2cccc3cccnc23)cc1
31 | 4.69 | – | O=C(Sc1cccc2cccnc12)c1ccc([N+](=O)[O-])cc1
32 | 5.26 | – | O=C(Sc1cccc2cccnc12)c1ccccc1Br
33 | 5.32 | – | O=C(Sc1cccc2cccnc12)c1ccccc1
34 | 5.03 and 4.46 | – | CCOc1ccccc1C(=O)Sc1cccc2cccnc12
35 | – | > 95 µM (inactive) | O=C(Sc1cccc2cccnc12)c1cccc(C(F)(F)F)c1
36 | 4.85 and 5.08 | – | COc1ccccc1C(=O)Sc1cccc2cccnc12
37 | 4.68 | – | Cc1ccccc1C(=O)Sc1cccc2cccnc12
38 | – | > 95 µM (inactive) | O=C(Sc1cccc2cccnc12)c1ccccc1F
